Where a name gives a salt, the structure may show the parent alone. Read-outs that look alike come from different tables or passages of the source.
What was measured:
Assay type in all cases: biochemical
[1] = system: zinc-dependent metalloprotease (purified recombinant enzyme)
[2] = system: azocasein; experiment: Effects of temperature and pH on enzyme activity (azocasein assay)
Method: (§1) Specifically, all assays were conducted in a 50 mM Tris-HCl (pH 7.0) buffer. Enzyme samples (100 μl) obtained in Example 2 were added to 100 μl of 1% (w/v) azocasein and the reaction mixture was incubated at 50° C. for 1 h and terminated by the addition of 400 μl of 10% (w/v) trichloroacetic acid. The precipitated protein was removed by centrifugation (12,000×g, 5 min), and the resulting supernatant was transferred to a clean tube containing 700 μl of 525 mM NaOH. Absorbance was measured at 442 nm.
The optimal temperature for protease activity was examined in the buffer used in the standard assay at various temperatures. The values on the ordinate are shown as percentages of the enzyme activity (100%) observed at 50° C.
The optimal pH for the protease activity was determined in various buffers at 50° C. The buffers used were sodium acetate buffers (open rectangles, pH 5.0-6.0), Tris-HCl buffers (open triangles, pH 6.0-8.0) and glycine-NaOH buffers (open circles, pH 8.0-9.0).
The values on the ordinate are shown as percentages of the enzyme activity (100%) observed at pH 7.0. […] The optimal pH for the activity of protease was 7.0 (FIG. 3B).

[3] = system: fibrin (human fibrinogen clotted with human thrombin); experiment: Fibrinolytic assay, hydrolysis of fibrin clots analysed by SDS-PAGE; settings: 37° C.
Method: Fibrinolytic activity was determined using the method described by Datta et al. (Datta, et al., Arch. Biochem. Biophys. Vol. 317, pp 365-373, 1995) with minor modifications.
Specifically, 10 μl of 1% human fibrinogen (Sigma, USA) solution (prepared in a 20 mM Tris/HCl (pH 7.4) buffer) was added to human thrombin (0.05 NIH unit, Sigma, USA), and then allowed to stand for 1 h at room temperature. […] The hydrolysis of fibrin by the enzyme was analyzed by SDS-PAGE (FIG. 4). 5 μl each of reaction solutions was obtained at various time intervals and analyzed using an 11% SDS-PAGE gel.

[4] = system: azocasein; experiment: Protease activity assay, release of acid-soluble material from azocasein; settings: 50 mM Tris-HCl pH 7.0, 50° C., 1 h, by purification step
Method: Protease activity was determined by measuring the release of acid-soluble material from azocasein (Sigma, USA) (Windle, H. J. P. et al., Infect. Immun. Vol. 65, pp 3132-3137, 1997).
as §1
One unit of protease activity was defined as an amount required for producing enough acid-soluble material from azocasein to yield absorbance of 0.1 at 442 nm, following 1 h incubation at 50° C.

[5] = 1 mM, pre-incubation 25° C. 30 min, 50 mM Tris-HCl pH 7.0, no addition = 100

Molecule: [Cl-].[Cl-].[Mg+2] [MgCl2]
- effect on enzyme activity (in words) ([1]; 1 mM, as shown in Table 2): inhibited
- Relative activity [1, 5]: 20%

Molecule: [Cl-].[Cl-].[Zn+2] [ZnCl2]
- effect on enzyme activity (in words) ([1]; 1 mM, as shown in Table 2): inhibited
- Relative activity [1, 5]: 80%

Molecule: O=S(=O)([O-])[O-].[Cu+2] [CuSO4]
- Relative activity [1, 5]: 100%

Molecule: N=C(N)N [Guanidine hydrochloride, guanidine hydrochloride]
- effect on enzyme activity (in words) ([1]; 0.5 M): strongly inhibited
- Relative activity ([1]; 500 mM, pre-incubation 25° C. 30 min, 50 mM Tris-HCl pH 7.0, no addition = 100): 22%

Molecule: O=S(=O)([O-])[O-].[Ni+2] [NiSO4]
- effect on enzyme activity (in words) ([1]; 1 mM, as shown in Table 2): enhanced
- Relative activity [1, 5]: 140%

Molecule: CCCCCCCCCCCCOS(=O)(=O)[O-].[Na+] [SDS, sodium dodecyl sulfate]
- Relative activity ([1]; 17 mM, pre-incubation 25° C. 30 min, 50 mM Tris-HCl pH 7.0, no addition = 100): 9%
- effect on enzyme activity (in words) ([1]; 0.05% SDS): easily denatured

Molecule: [Cl-].[Cl-].[Co+2] [CoCl2]
- effect on enzyme activity (in words) [1]: enhanced
- Relative activity ([1]; 1 mM): 280%

Molecule: [Ca+2].[Cl-].[Cl-] [CaCl2]
- effect on enzyme activity (in words) ([1]; 1 mM, as shown in Table 2): enhanced
- Relative activity [1, 5]: 200%

Molecule: O=S(=O)(F)Cc1ccccc1 [PMSF, phenylmethylsulfonyl fluoride]
- effect on enzyme activity (in words) ([1]; 1 mM, as shown in Table 2): no influence
- Relative activity [1, 5]: 104%

Molecule: O=S(=O)([O-])[O-].[Fe+2] [FeSO4]
- Relative activity [1, 5]: 100%

Molecule: c1cnc2c(c1)ccc1cccnc12 [1,10-phenanthroline]
- effect on enzyme activity (in words) ([1]; 1 mM, as shown in Table 2): inhibited
- Relative activity [1, 5]: 55%

Molecule: O=C(O)CN(CCOCCOCCN(CC(=O)O)CC(=O)O)CC(=O)O [EGTA, ethylene glycol-bis(2-aminoethylether)-N,N,N′,N′-tetraacetic acid]
- effect on enzyme activity (in words) ([1]; 1 mM, as shown in Table 2): inhibited
- Relative activity [1, 5]: 21%

Molecule: O=C(O)CN(CCN(CC(=O)O)CC(=O)O)CC(=O)O [EDTA, ethylenediaminetetraacetic acid]
- effect on enzyme activity (in words) [1]: inhibited
- Relative activity ([1]; pH 7): 27%

B1: recombinant protease: Zinc-dependent fibrinolytic metalloprotease, 359 amino acids (SEQ ID NO:2), about 39 kDa, from deep-sea sediment metagenome, expressed in E. coli, purified by chitin affinity … (protein)
chain: MEPEPIKTCTVLENPGYQPIHAPTDVSPQPVLAAMEAVPVPTPPPTVDAVMLFRKKWRDGKILRVHFMDGDPDVHRKVEEVAHTWSRHANVRFKFVDDPAADIRISFTQPGSWSYLGTDALRIARSQSTMNFGWLTPRSPDSEYNRVVIHEFGHALGLVHEHQNPDNGIPWNKPAVYEYYSGPPNNWSKEQVDTNLFQQYSEDQVRFTGFDRESIMLYPIPNEFTVGDFEVGWNRDLSADDKEFIGRMYPKPANELIVDDPPRASEISRYGEIDTYTFLVTQKGSYRIETDGRTDLVMLLYGPEDDTKLIAADDDSGRRLNPRITEELDWGKYTVRLQHFSQRQTGKYAVGVYRDDAAE
modifications: Protein sequence of coding metalloprotease ES6349
- Enzyme activity compared with the enzyme activity (100%) at 50° C. ([2]; at 40° C.): 26%
- Enzyme activity compared with the enzyme activity (100%) at 50° C. ([2]; at 60° C.): 18%
- optimal temperature for the activity of the protease ([2]; standard assay buffer, 1 h): 50 °C
- optimal pH for the activity of protease ([2]; various buffers at 50° C.): 7.0
- hydrolysis of the β-chain of fibrin ([3]; after 30 min): partially hydrolyzed
- hydrolysis of the α-chain of fibrin ([3]; after 1 h): completely hydrolyzed
- hydrolysis of the γ-γ-chain of fibrin ([3]; after 1 h): completely hydrolyzed
- hydrolysis of the β-chain of fibrin ([3]; after 2 h): not completely hydrolyzed
- hydrolysis of the β-chain of fibrin ([3]; after 24 h (data not shown)): not completely hydrolyzed
- Specific activity [4]: 76,000 U/mg
- Specific activity ([4]; listed as Affinity chromatography): 3,400 U/mg

— patent US7867747B2, “Fibrinolytic metalloprotease and composition comprising the same” (priority 2006, dated 2011)
